According to ChEMBL document CHEMBL3880442, “NHE3-binding compounds and methods for inhibiting phosphate transport” (2014):

How the values were obtained:
Format in all cases: functional
Rattus norvegicus [1] = assay: Effect on phosphate level in urine in Sprague-Dawley rat at 10 mg/kg administered via oral gavage measured after 16 hrs by gravimetric analysis relative to vehicle-treated control
Rattus norvegicus [2] = assay: Effect on sodium level in urine in Sprague-Dawley rat at 10 mg/kg administered via oral gavage measured after 16 hrs by gravimetric analysis relative to vehicle-treated control
Rattus norvegicus [3] = assay: Effect on phosphate level in urine in Sprague-Dawley rat at 3 mg/kg administered via oral gavage measured after 16 hrs by gravimetric analysis relative to vehicle-treated control
Rattus norvegicus [4] = assay: Effect on sodium level in urine in Sprague-Dawley rat at 3 mg/kg administered via oral gavage measured after 16 hrs by gravimetric analysis relative to vehicle-treated control

| SMILES | Activity (Rattus norvegicus [1]) | Activity (Rattus norvegicus [2]) | Activity (Rattus norvegicus [3]) | Activity (Rattus norvegicus [4]) |
| --- | --- | --- | --- | --- |
| CN1Cc2c(Cl)cc(Cl)cc2[C@H](c2cccc(S(=O)(=O)NCCOCCOCCOCCNC(=O)CN(CCOCCOCCN(CC(=O)NCCOCCOCCOCCNS(=O)(=O)c3cccc([C@@H]4CN(C)Cc5c(Cl)cc(Cl)cc54)c3)CC(=O)NCCOCCOCCOCCNS(=O)(=O)c3cccc([C@@H]4CN(C)Cc5c(Cl)cc(Cl)cc54)c3)CC(=O)NCCOCCOCCOCCNS(=O)(=O)c3cccc([C@@H]4CN(C)Cc5c(Cl)cc(Cl)cc54)c3)c2)C1 | 95% | 51% | – | – |
| CN1Cc2c(Cl)cc(Cl)cc2[C@@H](c2cccc(S(=O)(=O)NCCOCCOCCNC(=O)NCCCC(N)(CCCNC(=O)NCCOCCOCCNS(=O)(=O)c3cccc([C@@H]4CN(C)Cc5c(Cl)cc(Cl)cc54)c3)CCCNC(=O)NCCOCCOCCNS(=O)(=O)c3cccc([C@@H]4CN(C)Cc5c(Cl)cc(Cl)cc54)c3)c2)C1 | – | – | 50% | 56% |
| CN1Cc2c(Cl)cc(Cl)cc2[C@H](c2cccc(S(=O)(=O)NCCOCCOCCNC(=O)CCC(CCC(=O)NCCOCCOCCNS(=O)(=O)c3cccc([C@@H]4CN(C)Cc5c(Cl)cc(Cl)cc54)c3)(CCC(=O)NCCOCCOCCNS(=O)(=O)c3cccc([C@@H]4CN(C)Cc5c(Cl)cc(Cl)cc54)c3)NC(=O)N3CCN(CCOCCO)CC3)c2)C1 | – | – | 34% | 31% |
| CN(CC(=O)NCCOCCOCCOCCN1CCN(c2ccc(-c3nc(NC(=N)N)nc4ccc(Cl)cc34)cc2)CC1)CC(=O)NCCOCCOCCOCCN1CCN(c2ccc(-c3nc(NC(=N)N)nc4ccc(Cl)cc34)cc2)CC1 | 101% | 66% | – | – |
| CN1Cc2c(Cl)cc(Cl)cc2[C@H](c2ccc(S(=O)(=O)NCCOCCOCCOCCNC(=O)COCC(=O)NCCOCCOCCOc3cccc(-c4nc(NC(=N)N)nc5ccc(Cl)cc45)c3)cc2)C1 | 150% | 87% | – | – |
| N=C(N)Nc1nc(-c2ccc(N3CCN(CCOCCOCCOCCNC(=O)CCOCCOCCOCCOCCOCCC(=O)NCCOCCOCCOCCN4CCN(c5ccc(-c6nc(NC(=N)N)nc7ccc(Cl)cc67)cc5)CC4)CC3)cc2)c2cc(Cl)ccc2n1 | – | 100% | – | – |
| CN1Cc2c(Cl)cc(Cl)cc2[C@H](c2cccc(S(=O)(=O)NCCOCCOCCN(C)C(=O)NCCCN(CCCNC(=O)N(C)CCOCCOCCNS(=O)(=O)c3cccc([C@@H]4CN(C)Cc5c(Cl)cc(Cl)cc54)c3)CCCNC(=O)N(C)CCOCCOCCNS(=O)(=O)c3cccc([C@@H]4CN(C)Cc5c(Cl)cc(Cl)cc54)c3)c2)C1 | – | – | 68% | 38% |
| O=C(NCCCCNC(=O)NCCOCCOCCNS(=O)(=O)c1ccc(O[C@H]2c3ccccc3C[C@@H]2N2CCCCC2)cc1)NCCOCCOCCNS(=O)(=O)c1ccc(O[C@H]2c3ccccc3C[C@@H]2N2CCCCC2)cc1 | 30 - 51% | 35 - 73% | – | – |
